Reference: patent US5691311A (Biogen, Inc., priority 1995, dated 1997)
Where two headings read alike, the source gives them in different places.

Assays:
[1] = target: clot-bound thrombin (Homo sapiens, UniProt P00734); assay: Fibrinopeptide A (FPA) release by clot-bound thrombin; type: biochemical; conditions: similar dose (0.1 U/ml)
[2] = system: platelet-dependent thrombosis; conditions: collagen-coated silastic tubing, 160 U/kg bolus then 160 U/kg/hr infusion; cited from earlier work
[3] = system: hemostasis; assay: Template bleeding time; type: in vivo, baboon
[4] = target: T1, soluble thrombin (Homo sapiens, UniProt P00734); assay: Fibrinopeptide A (FPA) release by soluble thrombin; type: biochemical; conditions: 0.1 U/ml
T1 construct: We added a 270-fold excess of ^14 C-DFP to thrombin

[5] = system: APTT; assay: Systemic anticoagulant effect (APTT) of antithrombotic agents; type: in vivo, baboon; conditions: dose not given
From the text: We also tested the effects of a variety of other agents on template bleeding time in the baboon, as well as on systemic anticoagulant effects (as measured by APTT).

[6] = system: pooled, normal human plasma; assay: Activated partial thromboplastin time (APTT) assay in plasma; type: biochemical; conditions: 10 to 32,300 ng/ml
From the text: Hirulog-8 using pooled, normal human plasma (George King Biomedical, Overland Park, Kans.) and a Coag-A-Mate XC instrument (General Diagnostics, Organon Technica, Oklahoma City, Okla.). Activity was monitored using the activated partial thromboplastin time (APTT) assay with CaCl2 and phospholipid solutions obtained from the manufacturer.

[7] = target: thrombin (Homo sapiens, UniProt P00734); conditions: cited from earlier work
[8] = system: thrombin-induced platelet activation; assay: Thrombin-induced platelet activation in platelet-rich plasma; type: cell-based, human; conditions: 0-500 ng/ml, thrombin 0.2, 0.25 or 0.5 units/ml
Procedure: Thrombin-induced platelet activation studies are performed at 37° C. using a Biodata PAP4 Platelet Aggregometer. Platelet-rich plasma (PRP) is obtained from normal, healthy, volunteers who have not taken any medication altering platelet function for at least one week prior to study. PRP is prepared as described by J. A. Jakubowski et al., "Modification of Human Platelet by a Diet Enriched in Saturated or Polyunsaturated Fat", Atherosclerosis, 31, pp. 335-44 (1978). […] One minute later, we add human α-thrombin to the platelet suspension to a final concentration of 0.2, 0.25 or 0.5 units/ml total assay volume. Aggregation is monitored as an increase in light transmission for 5 minutes following the addition of thrombin. We then calculate % Inhibition as (% aggregationsample)/(% aggregationcontrol)×100.

[9] = system: E. coli-induced septic shock; assay: E. coli-induced septicemia / disseminated intravascular coagulation; type: in vivo, baboon; conditions: 0.08 mg/kg/hr infusion
From the text: We induced septicemia in baboons by injection of a lethal dose of live E. coli according to the method described by F. B. Taylor et al. J. Clin. Invest., 79, pp. 918-25 (1987).

[10] = system: sarcoma T241 cells; assay: Anti-metastatic activity, lung tumor colonies; type: in vivo, C57BL/6 mice; conditions: i.v. or s.c., 15 days
From the text: After 15 days, the animal is sacrificed and lung tumor colonies are quantitated.

[11] = system: platelet-dependent thrombus formation; assay: High and low shear platelet-dependent thrombus formation, dual-chamber device; type: in vivo, baboon; conditions: 0.05 mg/kg/min, 40 minutes
From the text: The device was comprised of a 2 cm segment of collagen-coated Gortex followed by 2 cm segments of expanded diameter. Using this device, thrombus formation was initiated by exposure of native flowing blood to a segment of the collagen-coated Gortex at high shear. This part of the experimental protocol simulated arterial-like conditions. When the blood entered the expanded diameter segments, low-shear, vortex conditions were maintained, thereby simulating venous thrombosis. In control animals, a total of 9.3±2.3×10^8 and 6.1±0.5×10^8 platelets/cm accumulated after 40 minutes in the high and low shear segments, respectively.

[12] = system: fibrin(ogen) deposition; assay: Fibrin(ogen) deposition in AV shunt thrombi; type: in vivo, baboon; conditions: collagen-coated tubing, 60 minute exposure
Procedure: Fibrin deposition was determined by measurement of ^125 I-fibrin(ogen) 30 days after completion of the ^111 In-platelet assay described above. This allowed the ^111 In label to decay to a non-interfering level.

[13] = Clearance times monitored by APTT; type: in vivo, baboon
Procedure: APTT assays, performed as described in Example 11, were used to monitor clearance times.
APTT was measured following the 60 minute infusion and at various time intervals thereafter.
APTT measurements were taken at various time intervals following injection.

[14] = system: HUVECs; assay: Thrombin-induced polymorphonuclear leukocyte (PMN) adhesion to HUVECs; type: cell-based, human; conditions: 5 μg/ml, α-thrombin 0.1 or 1 U/ml
Procedure: HUVECs are grown to confluence in MEM containing 1% fetal calf serum in 24-well cluster plates. The medium is then removed, the cells are washed two times with fresh, serum-free medium and incubated in the same medium for 10-30 minutes at 37° C. to remove serum products. PMNs (2.5×10^6 in 1 ml), which are pre-equilibrated at 37° C., are then added to each well. The PMNs are allowed to settle onto the HUVEC monolayer for 2 minutes. […] The cells are incubated for 5 minutes at 37° C., washed twice and then examined by phase-contrast microscopy. Adherent PMNs are counted directly.

[15] = system: APTT; assay: In vivo anticoagulant activity, APTT after intravenous infusion; set-up: species or system baboon
Procedure: Whole blood from treated and control animals was removed from a catheter placed in the femoral vein and collected into 3.8% sodium citrate (9:1; blood:sodium citrate). Plasma was obtained by standard methods and the APTT was recorded by methods described in Example 10.

[16] = system: human umbilical vein endothelial cells (HUVECs); assay: Thrombin-induced synthesis of platelet activating factor (PAF); type: cell-based; conditions: 0-1 μg/ml, thrombin 1 U/ml
Procedure: The ability of the thrombin inhibitors of this invention to prevent thrombin-induced synthesis of platelet activating factor (PAF) is assayed using cultured human umbilical vein endothelial cells (HUVECs). HUVECS are extracted from human umbilical cords by collagenase digestion according to established procedures [M. A. Gimborne, Jr., "Culture of Vascular Endothelium", Prog. Hemost. Thromb., 3, pp. 1-28 (1976)]. HUVECs are grown to confluence in a 96-well microtiter plate in the presence of [^3 H]-acetate. Cells cultured in this manner produce [^3 H]-acetyl-PAF, which may be quantitated by extraction of HUVEC membrane phospholipids.
Cells are incubated for 5 minutes and the supernatant is then removed. Medium containing 0.1% gelatin, 50 mM acetic acid in methanol (2:1 v/v) is then added to the HUVECs. PAF is then extracted and quantified using conventional techniques [T. M. Mcintyre et al., "Cultured Endothelial Cells Synthesize Both Platelet-Activating Factor and Prostacyclin in Response to Histamine, Bradykinin and Adenosine Triphosphate", J. Clin. Invest., 76, pp. 271-80 (1985)]. The IC50 values are then calculated.

[17] = system: platelet-dependent thrombosis; assay: Platelet deposition on thrombogenic surfaces in exteriorized AV shunt; type: in vivo, baboon
Procedure: Specifically, we placed various thrombogenic surfaces in a chronic exteriorized AV shunt in the animals. These surfaces included segments of endarterectomized baboon aorta, collagen-coated silastic tubing, collagen-coated Gortex and Dacron vascular graft. Following placement in the shunt, the surfaces were exposed to native flowing blood to elicit thrombus formation. We measured the formation of thrombi over a period of 60 minutes by monitoring the deposition of platelets on the thrombogenic surface. These measurements were recorded by external gamma-camera imaging following pre-infusion of the test animal with autologous ^111 In-labeled platelets.

Heparin
effect on FPA release catalyzed by clot-bound thrombin [1]: no effect
platelet deposition level relative to saline-treated control [2]: about 80%
Bleeding Time ([3]; in vivo): 10 min
inhibition of FPA release catalyzed by soluble thrombin [4]: approximately 70%
APTT (% control) [5]: 706.1 % control

hirudin
maximal increase of APTT of plasma [6]: too high to be measured
Kd ([7]; 1:1 stoichiometric complex, read-out: Kd of hirudin binding to thrombin): 0.02 nM
Kd ([7]; site separate from the catalytic site (anion-binding exosite), read-out: Kd of hirudin for the low affinity site on thrombin): 10 nM

CC[C@H](C)[C@H](NC(=O)[C@H](CCC(=O)O)NC(=O)[C@H](CCC(=O)O)NC(=O)[C@H](Cc1ccccc1)NC(=O)[C@H](CC(=O)O)NC(=O)CNC(=O)[C@H](CC(N)=O)NC(=O)CNC(=O)CNC(=O)CNC(=O)CNC(=O)[C@@H]1CCCN1C(=O)[C@H](CCCNC(=N)N)NC(=O)[C@@H]1CCCN1C(=O)[C@H](N)Cc1ccccc1)C(=O)N1CCC[C@H]1C(=O)N[C@@H](CCC(=O)O)C(=O)N[C@@H](CCC(=O)O)C(=O)N[C@@H](Cc1ccc(O)cc1)C(=O)N[C@@H](CC(C)C)C(=O)O [Hirulog-8]
thrombin-induced platelet activation [8]: blocks thrombin-induced platelet activation
hematocrit drop [9]: completely attenuated hematocrit drop
intravascular thrombosis at autopsy [9]: only the control group displayed intravascular thrombosis
morbidity after lethal infusion of E. coli [9]: still resulted in morbidity
peak drop in blood pressure [9]: 60 % of baseline
anti-metastatic activity (reduction in lung tumor colonies) [10]: demonstrates anti-metastatic activity
maximal increase of APTT of plasma [6]: too high to be measured
inhibition of platelet accumulation ([11]; high shear): 29.0%
inhibition of platelet accumulation ([11]; low shear): 42.6%
fibrin(ogen) deposition ([12]; 0.01 mg/kg/min): completely inhibited fibrin(ogen) deposition
fibrin(ogen) deposition ([12]; 0.04 mg/kg/min): completely inhibited fibrin(ogen) deposition
half-life ([13]; 1 mg/kg i.v. bolus): 14 min
peak APTT ([13]; 1 mg/kg i.v. bolus, 2 minutes after injection): 570 % of control
absorption after subcutaneous administration ([13]; 1 mg/kg subcutaneous): quantitatively adsorbed
clearance half-time ([13]; 1 mg/kg subcutaneous): 340 min
APTT ([13]; 1 mg/kg subcutaneous, 15 minutes): approximately 200 % of control
average half-time for clearance ([13]; after 60 minute i.v. infusion, 0.002-0.2 mg/kg/min): 9.2 ± 3.3 min
increase in bleeding time over control values ([3]; 0.1 mg/kg/min): two-fold
bleeding times ([3]; 0.2 mg/kg/min): 3 times control values
bleeding times ([3]; 0.002 to 0.04 mg/kg/min): no significant increase in bleeding times
Bleeding Time ([3]; dose not given): 5.5 min
adherent PMNs versus saline [14]: significantly fewer adherent PMNs
increase in the APTT ([15]; 0.002 mg/kg/min infusion): 200 % increase
APTT response to dose ([15]; 0.002 to 0.2 mg/kg/min i.v.): dose-dependent increase in the APTT
synthesis of PAF by HUVECs [16]: inhibits the synthesis of PAF
ED50 ([17]; collagen-coated Gortex): 0.135 mg/kg/min
inhibition of platelet deposition ([17]; collagen-coated Gortex, 0.2 mg/kg/min): 62.9%
ED50 ([17]; collagen-coated silastic tubing): 0.004 mg/kg/min
inhibition of platelet-dependent thrombus formation compared to control ([17]; collagen-coated silastic tubing, 5 nmole/kg/min): 60-70%
inhibition of platelet deposition ([17]; collagen-coated silastic tubing, 0.04 mg/kg/min): completely inhibited platelet deposition
ED50 ([17]; collagen-coated surfaces, applicants' determinations): < 5 nmol/kg/min
ED50 (dosage required to reduce platelet deposition by 50%) ([17]; endarterectomized baboon aorta): 0.002 mg/kg/min
inhibition of platelet deposition ([17]; endarterectomized baboon aorta, 0.002 mg/kg/min, 60 minutes): 53.6%
inhibition of platelet deposition ([17]; endarterectomized baboon aorta, 0.01 mg/kg/min, 60 minutes): 75.5%
APTT (% control) [5]: 300.6 % control
